Experimental data from patent US4672036A, “Pure cultures of Kibdelsporangium aridum Shearer gen. nov., sp. nov. ATCC 39323 and mutants thereof” (SmithKline Beckman Corporation, priority 1985, dated 1987).
Converted amounts (≈) assume the structure as drawn. “And” between values parts separate entries of the source, which are not always exact repeats. Equal values may be shown once. Read-outs that look alike come from different tables or passages of the source.

Experiments:
Staph. aureus SK & F 910 = assay type: cell-based; conditions: Staphylococcus aureus
Strep. faecilis HH34358 = assay type: cell-based
[1] = test system: Proteus mirabilis SK & F 444; assay type: cell-based; conditions: Proteus mirabilis
[2] = test system: E. coli 12140 (SK & F 809); assay type: cell-based; conditions: Escherichia coli
[3] = test system: Pseudomonas aeruginosa HH63; assay type: cell-based; conditions: Pseudomonas aeruginosa, HH63
[4] = test system: Serratia marcesens ATCC 13880; assay type: cell-based; conditions: Serratia, ATCC13880
[5] = test system: Proteus morgani SK & F 179; assay type: cell-based
Providencia SK & F 276 = assay type: cell-based; conditions: Providencia
[6] = test system: Staph. epidermidis SK & F 2479; assay type: cell-based; conditions: Staphylococcus epidermidis
[7] = test system: Listeria monocytogenes SK & F 2255; assay type: cell-based; conditions: Listeria monocytogenes
[8] = test system: Staph. epidermidis SK & F 651; assay type: cell-based; conditions: Staphylococcus epidermidis
Staph. aureus SK & F 674 = assay type: cell-based
[9] = test system: Staph. aureus SK & F 2593; assay type: cell-based; conditions: Staphylococcus aureus
[10] = test system: Staph. aureus SK & F 2666; assay type: cell-based; conditions: Staphylococcus aureus
[11] = test system: Staph. aureus SK & F 2678; assay type: cell-based; conditions: Staphylococcus aureus
[12] = test system: Staph. aureus SK & F 2680; assay type: cell-based; conditions: Staphylococcus aureus
[13] = test system: Staph. aureus SK & F 2682; assay type: cell-based; conditions: Staphylococcus aureus
[14] = test system: Staph. aureus SK & F 2736; assay type: cell-based; conditions: Staphylococcus aureus
[15] = test system: Staph. aureus SK & F 2776; assay type: cell-based; conditions: Staphylococcus aureus
[16] = test system: Staph. aureus SK & F 2777; assay type: cell-based; conditions: Staphylococcus aureus
[17] = test system: Staph. aureus SK & F 2612; assay type: cell-based; conditions: Staphylococcus aureus
[18] = test system: Staph. aureus SK & F 2614; assay type: cell-based; conditions: Staphylococcus aureus
[19] = test system: Staph. aureus SK & F 2590; assay type: cell-based; conditions: Staphylococcus aureus
[20] = test system: Staph. aureus SK & F 2591; assay type: cell-based; conditions: Staphylococcus aureus
[21] = test system: Staph. aureus SK & F 2592; assay type: cell-based; conditions: Staphylococcus aureus
[22] = test system: Staph. aureus SK & F 2596; assay type: cell-based; conditions: Staphylococcus aureus
[23] = test system: Bacteroides fragilis ATCC 25285; assay type: cell-based; conditions: Bacteroides fragilis, ATCC25285
B. fragilis H145 = assay type: cell-based, Bacteroides fragilis; conditions: Bacteroides fragilis, H145
B. fragilis SK & F 3060 = assay type: cell-based, Bacteroides fragilis; conditions: Bacteroides fragilis
Staph. aureus 209P = assay type: cell-based; conditions: Staphylococcus aureus
[24] = test system: Staph. aureus SK & F 674-P6 Mutant; assay: microbe, parasite or virus in culture; assay type: cell-based; conditions: Staphylococcus aureus
[25] = test system: Staph. epidermidis SK & F 2265; assay type: cell-based; conditions: Staphylococcus epidermidis
rumen in vitro model [26] = assay: rumen in vitro model (growth promotant activity); design: species or system steer
Procedure: The protocol for the rumen in vitro model is analogous to the protocol for the swine in vitro model with the following modifications:
(1) A 400 kg steer is surgically prepared with a rumen cannula.
(2) The animal is fed one time a day with the following ration:
(3) Manipulation of VFA production is described as the production ratio of propionate as a percentage of total VFA produced.
(4) Sampling of the material, via the cannula, is at 120 minutes post feeding.

rumen in vitro model [27] = assay: rumen in vitro model (growth promotant activity); design: species or system steer; remark: listed apart in the source
Staph. aureus HH 127 = assay: animal or person; conditions: Staphylococcus aureus, HH127, in Mus musculus
[28] = test system: Salmonella gallinarum BC595; assay: microbe, parasite or virus in culture; conditions: Salmonella enterica
[29] = test system: Clostridium perfringens MCP-1; assay: microbe, parasite or virus in culture; conditions: MCP1
C. perfringens MCP-2 = assay: microbe, parasite or virus in culture; conditions: Clostridium perfringens, MCP2

## CN[C@H](CC(C)C)C(=O)N[C@H]1C(=O)N[C@@H](CC(N)=O)C(=O)N[C@H]2C(=O)N[C@H]3C(=O)N[C@H](C(=O)N[C@H](C(=O)O)c4cc(O)cc(O)c4-c4cc3ccc4O)[C@H](O)c3ccc(c(Cl)c3)Oc3cc2cc(c3O[C@@H]2O[C@H](CO)[C@@H](O)[C@H](O)[C@H]2O[C@H]2C[C@](C)(N)[C@H](O)[C@H](C)O2)Oc2ccc(cc2Cl)[C@H]1O [Vancomycin, reference compound]
Staph. aureus SK & F 910; Table A
  MIC: 1.6 µg/mL (≈ 1.1 µM)
Staph. aureus SK & F 910; Table B, Methicillin Sensitive
  MIC: 1.6 µg/mL (≈ 1.1 µM)
Staph. aureus SK & F 910; Table E
  MIC: 3.1 µg/mL (≈ 2.14 µM)
Strep. faecilis HH34358
  MIC: 3.1 µg/mL (≈ 2.14 µM)
Strep. faecilis HH34358; Enterococcus faecalis, HH34358
  MIC: 6.3 µg/mL (≈ 4.35 µM)
[1]
  MIC: 100 µg/mL (≈ 69 µM)
[2]; Table A
  MIC: 100 µg/mL (≈ 69 µM)
[2]; Table E
  MIC: > 100 µg/mL
[3]
  MIC: > 100 µg/mL
[4]
  MIC: > 100 µg/mL
[5]
  MIC: > 100 µg/mL
Providencia SK & F 276
  MIC: > 100 µg/mL
[6]; Table A
  MIC: 1.6 µg/mL (≈ 1.1 µM)
[6]; Table E
  MIC: 6.3 µg/mL (≈ 4.35 µM)
[7]; Table A
  MIC: 1.6 µg/mL (≈ 1.1 µM)
[7]; Table E
  MIC: 3.1 µg/mL (≈ 2.14 µM)
[8]; Table A
  MIC: 1.6 µg/mL (≈ 1.1 µM)
[8]; Table E
  MIC: 6.3 µg/mL (≈ 4.35 µM)
Staph. aureus SK & F 674; Staphylococcus aureus
  MIC: 1.6 µg/mL (≈ 1.1 µM)
Staph. aureus SK & F 674; Table E
  MIC: 1.6 µg/mL (≈ 1.1 µM)
[9]
  MIC: 1.6 µg/mL (≈ 1.1 µM)
[10]
  MIC: 1.6 µg/mL (≈ 1.1 µM)
[11]
  MIC: 1.6 µg/mL (≈ 1.1 µM)
[12]
  MIC: 1.6 µg/mL (≈ 1.1 µM)
[13]
  MIC: 1.6 µg/mL (≈ 1.1 µM)
[14]
  MIC: 1.6 µg/mL (≈ 1.1 µM)
[15]
  MIC: 1.6 µg/mL (≈ 1.1 µM)
[16]
  MIC: 0.8 µg/mL (≈ 0.552 µM)
[17]
  MIC: 1.6 µg/mL (≈ 1.1 µM)
[18]
  MIC: 1.6 µg/mL (≈ 1.1 µM)
[19]
  MIC: 1.6 µg/mL (≈ 1.1 µM)
[20]
  MIC: 1.6 µg/mL (≈ 1.1 µM)
[21]
  MIC: 3.1 µg/mL (≈ 2.14 µM)
[22]
  MIC: 3.1 µg/mL (≈ 2.14 µM)
[23]
  MIC: 32 µg/mL (≈ 22.1 µM)
B. fragilis H145
  MIC: 32 µg/mL (≈ 22.1 µM)
B. fragilis SK & F 3060
  MIC: 32 µg/mL (≈ 22.1 µM)
Staph. aureus 209P
  MIC: 1.6 µg/mL (≈ 1.1 µM)
[24]
  MIC: > 100 µg/mL
[25]
  MIC: 6.3 µg/mL (≈ 4.35 µM)
Rumen in vitro model [26]
  Propionate %: 127 % Control and 130 % Control and 105 % Control
  VFA (total of volatile fatty acids): 107 % Control and 97 % Control
Rumen in vitro model [27]
  LYS (lysine): 85 % Control and 83 % Control
Staph. aureus HH 127
  ED50: 1.76 mg/kg
[28]; Table A
  MIC: 25 µg/mL (≈ 17.3 µM)
[28]; Table E
  MIC: > 100 µg/mL
[29]
  MIC: 0.5 µg/mL (≈ 0.345 µM)
C. perfringens MCP-2
  MIC: 0.5 µg/mL (≈ 0.345 µM)
